Laboratory results reported in PubChem BioAssay (NCI).
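In this assay, cells in 96-well plates receive the compound at five concentrations for 48 hours. Endpoints are linearly interpolated between the surrounding concentrations. TGI marks complete inhibition of growth.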

Tests used:
Assay in all cases: DTP human tumour cell line panel, 48 h
CCRF-CEM leukemia = tested on: CCRF-CEM leukemia
COLO 205 colon = tested on: COLO 205 colon
SK-MEL-28 melanoma = tested on: SK-MEL-28 melanoma
NCI-H226 lung = tested on: NCI-H226 lung
SK-MEL-2 melanoma = tested on: SK-MEL-2 melanoma
OVCAR-5 ovarian = tested on: OVCAR-5 ovarian
MDA-MB-231 breast = tested on: MDA-MB-231 breast
NCI-H522 lung = tested on: NCI-H522 lung
SF-268 CNS = tested on: SF-268 CNS
HOP-62 NSCLC = tested on: HOP-62 NSCLC
U251 CNS = tested on: U251 CNS
BT-549 breast = tested on: BT-549 breast
A549 NSCLC = tested on: A549 NSCLC
RPMI-8226 leukemia = tested on: RPMI-8226 leukemia
RXF 393 renal = tested on: RXF 393 renal
K-562 leukemia = tested on: K-562 leukemia
SW-620 colon = tested on: SW-620 colon
HCT-15 colon = tested on: HCT-15 colon
OVCAR-4 ovarian = tested on: OVCAR-4 ovarian
MCF7 breast = tested on: MCF7 breast
MDA-MB-435 = tested on: MDA-MB-435
UACC-257 melanoma = tested on: UACC-257 melanoma
786-0 renal = tested on: 786-0 renal
IGROV1 ovarian = tested on: IGROV1 ovarian
SNB-19 CNS = tested on: SNB-19 CNS
NCI/ADR-RES ovarian = tested on: NCI/ADR-RES ovarian
LOX IMVI melanoma = tested on: LOX IMVI melanoma
TK-10 renal = tested on: TK-10 renal
UO-31 renal = tested on: UO-31 renal
DU-145 prostate = tested on: DU-145 prostate
M14 melanoma = tested on: M14 melanoma
SN12C renal = tested on: SN12C renal
OVCAR-3 ovarian = tested on: OVCAR-3 ovarian
EKVX NSCLC = tested on: EKVX NSCLC
HL-60(TB) leukemia = tested on: HL-60(TB) leukemia
A498 renal = tested on: A498 renal
PC-3 prostate = tested on: PC-3 prostate
NCI-H23 lung = tested on: NCI-H23 lung
UACC-62 melanoma = tested on: UACC-62 melanoma
MDA-N = tested on: MDA-N
KM12 colon = tested on: KM12 colon
ACHN renal = tested on: ACHN renal
HOP-92 NSCLC = tested on: HOP-92 NSCLC
CAKI-1 renal = tested on: CAKI-1 renal
MOLT-4 leukemia = tested on: MOLT-4 leukemia
OVCAR-8 ovarian = tested on: OVCAR-8 ovarian
MALME-3M melanoma = tested on: MALME-3M melanoma
HS 578T breast = tested on: HS 578T breast
SK-MEL-5 melanoma = tested on: SK-MEL-5 melanoma
HCC-2998 colon = tested on: HCC-2998 colon
SF-539 CNS = tested on: SF-539 CNS
HT29 colon = tested on: HT29 colon
SF-295 CNS = tested on: SF-295 CNS
HCT-116 colon = tested on: HCT-116 colon
T-47D breast = tested on: T-47D breast
SR leukemia = tested on: SR leukemia
NCI-H460 lung = tested on: NCI-H460 lung
SNB-75 CNS = tested on: SNB-75 CNS
SK-OV-3 ovarian = tested on: SK-OV-3 ovarian

Measured: TGI

COC(=O)[C@@H](Nc1ccccc1)[C@@]1(C(=O)OC)SC12c1ccccc1-c1ccccc12
62.5 µM: NCI-H522 lung
not listed: SR leukemia | NCI-H460 lung | SNB-75 CNS | SK-OV-3 ovarian
> 100 µM: all other assays above

Nc1ncnc2oc(-c3cccs3)nc12
not listed: CAKI-1 renal | MOLT-4 leukemia | MALME-3M melanoma | SNB-75 CNS | SK-OV-3 ovarian
> 100 µM: all other assays above

c1ccc(N=C2SC(c3ccccc3)(c3ccccc3)c3ccccc32)cc1
not listed: SR leukemia
> 100 µM: all other assays above

Cc1cn(CCOCCOC(=O)NC(CCCN=C(N)N)C(=O)O)c(=O)[nH]c1=O (stereo not drawn)
not listed: NCI-H522 lung | CAKI-1 renal | OVCAR-8 ovarian | MALME-3M melanoma | SK-MEL-5 melanoma
> 100 µM: all other assays above

Cc1ccc(C[N+](C)(C)N)cc1C
not listed: SK-MEL-2 melanoma | SR leukemia
> 10 µM: all other assays above
